Measured values published in publication PMC6979384, “Characterization of the plant homeodomain (PHD) reader family for their histone tail interactions” (Epigenetics & Chromatin, 2020).

How the values were obtained:
Test in all cases: Histone peptide microarray
Format in all cases: binding, human
[1] = system: AIRE (PP); conditions: GST-tagged AIRE (PP); sheet Array Heatmap; each array performed twice, total n = 4
Source text: (§1) To more comprehensively define the histone interactions of the 31 PHD readers identified from the domain microarray analyses, we probed each on an alternate microarray platform containing a library of 293 synthetic histone peptides with single or combinatorial PTMs (Additional file 2: Figure S4 and Additional file 3: Table S2).
(§2) The 31 GST-tagged PHD readers identified in the PHD finger domain array were expressed and purified as previously. Histone peptide arrays and peptide pulldown assays were conducted as recently described (specifically, the optimized protocol from Petell et al. for the former).
(§3) Supplementary file 13072_2020_328_MOESM3_ESM.xlsx: Additional file 3: Table S2. […] Excel Tab Peptide List is a compiled list of the entire 293 histone peptide library with amino acid sequence ranges. […] Each number corresponds to the peptide number designated in Peptide List. Excel Tab Average Signals is a compiled set of binding data: chromatin reader at 0.5 μM vs. entire 293 peptide library. Data is presented as the average and standard deviation of 4 replicates. The average signals are colored to indicate signal intensity with green being strong and white being weak/low. […] Key: red= stronger relative binding; blue = weaker relative binding. Excel Tab Array info summary is a table summarizing the domains, sequence coverage, array signal range, and noise for each of the GST-tagged readers assayed on the peptide microarrays.

[2] = system: BAZ2B; conditions: GST-tagged BAZ2B; sheet Array Heatmap; each array performed twice, total n = 4
Source text: as §1, §2, §3

[3] = system: BPTF (PB); conditions: GST-tagged BPTF (PB = PHD + Bromodomain); sheet Array Heatmap; each array performed twice, total n = 4
Source text: as §1, §2, §3

[4] = system: CHD4 (PPCC); conditions: GST-tagged CHD4 (PPCC = Dual PHD + Dual Chromodomain); sheet Array Heatmap; each array performed twice, total n = 4
Source text: as §1, §2, §3

[5] = system: CHD5 (PCC); conditions: GST-tagged CHD5 (PCC = PHD + Dual Chromodomain); sheet Array Heatmap; each array performed twice, total n = 4
Source text: as §1, §2, §3

[6] = system: CHD5 (PPCC); conditions: GST-tagged CHD5 (PPCC = Dual PHD + Dual Chromodomain); sheet Array Heatmap; each array performed twice, total n = 4
Source text: as §1, §2, §3

[7] = system: DIDO1; conditions: GST-tagged DIDO1; sheet Array Heatmap; each array performed twice, total n = 4
Source text: as §1, §2, §3

[8] = system: DPF2 (PPC2W2); conditions: GST-tagged DPF2 (PPC2W2 = Dual PHD + C2W2-type Zn-finger); sheet Array Heatmap; each array performed twice, total n = 4
Source text: as §1, §2, §3

[9] = system: ING1; conditions: GST-tagged ING1; sheet Array Heatmap; each array performed twice, total n = 4
Source text: as §1, §2, §3

[10] = system: ING2; conditions: GST-tagged ING2; sheet Array Heatmap; each array performed twice, total n = 4
Source text: as §1, §2, §3

[11] = system: ING3; conditions: GST-tagged ING3; sheet Array Heatmap; each array performed twice, total n = 4
Source text: as §1, §2, §3

[12] = system: ING4; conditions: GST-tagged ING4; sheet Array Heatmap; each array performed twice, total n = 4
Source text: as §1, §2, §3

[13] = system: ING5; conditions: GST-tagged ING5; sheet Array Heatmap; each array performed twice, total n = 4
Source text: as §1, §2, §3

[14] = system: KDM4C (TTP); conditions: GST-tagged KDM4C (TTP = Tandem Tudor domain + PHD); sheet Array Heatmap; each array performed twice, total n = 4
Source text: as §1, §2, §3

[15] = system: KDM5A (1); conditions: GST-tagged KDM5A (1); sheet Array Heatmap; each array performed twice, total n = 4
Source text: as §1, §2, §3

[16] = system: KDM5A (3); conditions: GST-tagged KDM5A (3); sheet Array Heatmap; each array performed twice, total n = 4
Source text: as §1, §2, §3

[17] = system: KDM5B (1); conditions: GST-tagged KDM5B (1); sheet Array Heatmap; each array performed twice, total n = 4
Source text: as §1, §2, §3

[18] = system: KDM5B (3); conditions: GST-tagged KDM5B (3); sheet Array Heatmap; each array performed twice, total n = 4
Source text: as §1, §2, §3

[19] = system: KDM7A; conditions: GST-tagged KDM7A; sheet Array Heatmap; each array performed twice, total n = 4
Source text: as §1, §2, §3

[20] = system: MLL5; conditions: GST-tagged MLL5; sheet Array Heatmap; each array performed twice, total n = 4
Source text: as §1, §2, §3

[21] = system: MORC3 (CW); conditions: GST-tagged MORC3 (CW = CW-type Zn-finger); sheet Array Heatmap; each array performed twice, total n = 4
Source text: as §1, §2, §3

[22] = system: PHF13; conditions: GST-tagged PHF13; sheet Array Heatmap; each array performed twice, total n = 4
Source text: as §1, §2, §3

[23] = system: PHF21A; conditions: GST-tagged PHF21A; sheet Array Heatmap; each array performed twice, total n = 4
Source text: as §1, §2, §3

[24] = system: PHF23; conditions: GST-tagged PHF23; sheet Array Heatmap; each array performed twice, total n = 4
Source text: as §1, §2, §3

[25] = system: PHF2; conditions: GST-tagged PHF2; sheet Array Heatmap; each array performed twice, total n = 4
Source text: as §1, §2, §3

[26] = system: PHF8; conditions: GST-tagged PHF8; sheet Array Heatmap; each array performed twice, total n = 4
Source text: as §1, §2, §3

[27] = system: PHRF1 (RP); conditions: GST-tagged PHRF1 (RP); sheet Array Heatmap; each array performed twice, total n = 4
Source text: as §1, §2, §3

[28] = system: RAG2; conditions: GST-tagged RAG2; sheet Array Heatmap; each array performed twice, total n = 4
Source text: as §1, §2, §3

[29] = system: TAF3; conditions: GST-tagged TAF3; sheet Array Heatmap; each array performed twice, total n = 4
Source text: as §1, §2, §3

[30] = system: TRIM66 (PB); conditions: GST-tagged TRIM66 (PB = PHD + Bromodomain); sheet Array Heatmap; each array performed twice, total n = 4
Source text: as §1, §2, §3

[31] = system: SP140L; conditions: GST-tagged SP140L; sheet Array Heatmap; each array performed twice, total n = 4
Source text: as §1, §2, §3

Substance | Array Heatmap signal (histone peptide microarray) [1] | Array Heatmap signal (histone peptide microarray) [2] | Array Heatmap signal (histone peptide microarray) [3] | Array Heatmap signal (histone peptide microarray) [4] | Array Heatmap signal (histone peptide microarray) [5] | Array Heatmap signal (histone peptide microarray) [7] | Array Heatmap signal (histone peptide microarray) [8] | Array Heatmap signal (histone peptide microarray) [9] | Array Heatmap signal (histone peptide microarray) [10] | Array Heatmap signal (histone peptide microarray) [11] | Array Heatmap signal (histone peptide microarray) [12] | Array Heatmap signal (histone peptide microarray) [13] | Array Heatmap signal (histone peptide microarray) [14] | Array Heatmap signal (histone peptide microarray) [15] | Array Heatmap signal (histone peptide microarray) [16] | Array Heatmap signal (histone peptide microarray) [17] | Array Heatmap signal (histone peptide microarray) [18] | Array Heatmap signal (histone peptide microarray) [19] | Array Heatmap signal (histone peptide microarray) [20] | Array Heatmap signal (histone peptide microarray) [21] | also measured
H3K4me1 + K9ac + K14ac + K18ac: H3 1-20 | 0.4902 | 0.6125 | 0.3783 | 0.5742 | 0.872 | 0.6756 | 0.8362 | 0.5616 | 0.6379 | 0.5358 | 0.4842 | 0.3909 | 0.5283 | 0.5061 | 0.582 | 0.6974 | 0.5937 | 0.3735 | 0.5474 | 0.6558 | Array Heatmap signal (histone peptide microarray) [6]: 0.5902; Array Heatmap signal (histone peptide microarray) [22]: 0.6456; Array Heatmap signal (histone peptide microarray) [23]: 0.4842; Array Heatmap signal (histone peptide microarray) [24]: 0.5995; Array Heatmap signal (histone peptide microarray) [25]: 0.5275; Array Heatmap signal (histone peptide microarray) [26]: 0.4393; Array Heatmap signal (histone peptide microarray) [27]: 0.6901; Array Heatmap signal (histone peptide microarray) [28]: 0.2881; Array Heatmap signal (histone peptide microarray) [29]: 0.2961; Array Heatmap signal (histone peptide microarray) [30]: 0.6139
H3K4me3 + S10p: H3 1-20 | 0.4865 | 0.4888 | 0.4763 | 0.5979 | 0.823 | 0.8088 | 0.6728 | 0.7399 | 0.7902 | 0.5974 | 0.5113 | 0.452 | 0.6416 | 0.4961 | 0.9343 | 0.7367 | 0.6326 | 0.6944 | 0.8699 | 0.8974 | Array Heatmap signal (histone peptide microarray) [22]: 0.6968; Array Heatmap signal (histone peptide microarray) [23]: 0.4924; Array Heatmap signal (histone peptide microarray) [24]: 0.7051; Array Heatmap signal (histone peptide microarray) [25]: 0.6926; Array Heatmap signal (histone peptide microarray) [26]: 0.7298; Array Heatmap signal (histone peptide microarray) [27]: 0.4961; Array Heatmap signal (histone peptide microarray) [28]: 0.5128; Array Heatmap signal (histone peptide microarray) [31]: 0.3516; Array Heatmap signal (histone peptide microarray) [29]: 0.4497; Array Heatmap signal (histone peptide microarray) [30]: 0.6387
